The NIST ThermoML archive (doi:10.1016/j.fluid.2014.10.004)

Legend:
[1] = refractive index (Na D-line) (dimensionless); settings: 101.33 kPa, Liquid, Standard Abbe refractometry
[2] = 101.3 kPa, Liquid, Sing-around technique in a fixed-path interferometer
[3] = refractive index (Na D-line) (dimensionless); xn = mol fraction of the nth substance listed; settings: 101.3 kPa, Liquid, Standard Abbe refractometry
[4] = xn = mol fraction of the nth substance listed; settings: 101.3 kPa, Liquid, Sing-around technique in a fixed-path interferometer

CC(Cl)(Cl)Cl [1,1,1-trichloroethane]
Settings | refractive index, 298.15 K | refractive index, 308.15 K | refractive index, 318.15 K | speed of sound, 298.15 K [m/s] | speed of sound, 308.15 K [m/s] | speed of sound, 318.15 K [m/s]
[1] | 1.43492 | 1.42908 | 1.42311 | – | – | –
[2] | – | – | – | 962.94 | 928.68 | 894.71

ClC(Cl)C(Cl)Cl [1,1,2,2-tetrachloroethane]
Settings | refractive index, 298.15 K | refractive index, 308.15 K | refractive index, 318.15 K | speed of sound, 298.15 K [m/s] | speed of sound, 308.15 K [m/s] | speed of sound, 318.15 K [m/s]
[1] | 1.49174 | 1.48654 | 1.48137 | – | – | –
[2] | – | – | – | 1150.6 | 1118.7 | 1087

ClCCCl [1,2-dichloroethane]
Settings | refractive index, 298.15 K | refractive index, 308.15 K | refractive index, 318.15 K | speed of sound, 298.15 K [m/s] | speed of sound, 308.15 K [m/s] | speed of sound, 318.15 K [m/s]
[1] | 1.44206 | 1.43661 | 1.43109 | – | – | –
[2] | – | – | – | 1194.4 | 1156.1 | 1117.8

ClCCCCl [1,3-dichloropropane]
Settings | refractive index, 298.15 K | refractive index, 308.15 K | refractive index, 318.15 K | speed of sound, 298.15 K [m/s] | speed of sound, 308.15 K [m/s] | speed of sound, 318.15 K [m/s]
[1] | 1.44617 | 1.44123 | 1.43614 | – | – | –
[2] | – | – | – | 1236.5 | 1199.7 | 1163.2

ClCCCCCl [1,4-dichlorobutane]
Settings | refractive index, 298.15 K | refractive index, 308.15 K | refractive index, 318.15 K | speed of sound, 298.15 K [m/s] | speed of sound, 308.15 K [m/s] | speed of sound, 318.15 K [m/s]
[1] | 1.45224 | 1.44756 | 1.44279 | – | – | –
[2] | – | – | – | 1286.6 | 1251 | 1215.7

CCCCCl [1-chlorobutane]
Settings | refractive index, 298.15 K | refractive index, 308.15 K | refractive index, 318.15 K | speed of sound, 298.15 K [m/s] | speed of sound, 308.15 K [m/s] | speed of sound, 318.15 K [m/s]
[1] | 1.39953 | 1.39413 | 1.38851 | – | – | –
[2] | – | – | – | 1119 | 1078 | 1037.3

CCCCCCl [1-chloropentane]
Settings | refractive index, 298.15 K | refractive index, 308.15 K | refractive index, 318.15 K | speed of sound, 298.15 K [m/s] | speed of sound, 308.15 K [m/s] | speed of sound, 318.15 K [m/s]
[1] | 1.41015 | 1.40501 | 1.39984 | – | – | –
[2] | – | – | – | 1164.2 | 1124.9 | 1085.8

C[N+](=O)[O-] [nitromethane]
Settings | refractive index, 298.15 K | refractive index, 308.15 K | refractive index, 318.15 K | speed of sound, 298.15 K | speed of sound, 308.15 K | speed of sound, 318.15 K
[1] | 1.37951 [middle of 8 runs] | 1.37473 [middle of 7 runs] | 1.37001 [middle of 7 runs] | – | – | –
[2] | – | – | – | 1321.3 m/s [middle of 9 runs] | 1281.9 m/s [middle of 7 runs] | 1242.5 m/s [middle of 8 runs]

C[N+](=O)[O-] [nitromethane] + CCCCCCl
x2 = 0
Settings | refractive index, 298.15 K | refractive index, 308.15 K | refractive index, 318.15 K | speed of sound, 298.15 K [m/s] | speed of sound, 308.15 K [m/s] | speed of sound, 318.15 K [m/s]
[3] | 1.37954 | 1.3747 | 1.36996 | – | – | –
[4] | – | – | – | 1321.7 | 1282 | 1242.6

C[N+](=O)[O-] [nitromethane] + CCCCCl
Settings | refractive index, 298.15 K | refractive index, 308.15 K | refractive index, 318.15 K | speed of sound, 298.15 K [m/s] | speed of sound, 308.15 K [m/s] | speed of sound, 318.15 K [m/s]
[3], x2 = 0 | 1.37917 | 1.37447 | 1.3695 | – | – | –
[3], x2 = 0.1107 | 1.38191 | 1.37698 | 1.3718 | – | – | –
[3], x2 = 0.2174 | 1.38445 | 1.37936 | 1.37406 | – | – | –
[3], x2 = 0.3236 | 1.38691 | 1.38174 | 1.37632 | – | – | –
[3], x2 = 0.3932 | 1.38839 | 1.38321 | 1.37772 | – | – | –
[3], x2 = 0.4856 | 1.39032 | 1.38511 | 1.37958 | – | – | –
[3], x2 = 0.5569 | 1.39177 | 1.38656 | 1.38104 | – | – | –
[3], x2 = 0.6626 | 1.39383 | 1.38853 | 1.38299 | – | – | –
[3], x2 = 0.7722 | 1.39577 | 1.39045 | 1.3848 | – | – | –
[3], x2 = 0.8646 | 1.39729 | 1.39196 | 1.38635 | – | – | –
[4], x2 = 0 | – | – | – | 1321.5 | 1282.1 | 1242.8
[4], x2 = 0.1107 | – | – | – | 1273.7 | 1234.3 | 1195
[4], x2 = 0.2174 | – | – | – | 1236.5 | 1197.1 | 1157.8
[4], x2 = 0.3236 | – | – | – | 1207.6 | 1168.1 | 1128.9
[4], x2 = 0.3932 | – | – | – | 1191.9 | 1152.3 | 1112.8
[4], x2 = 0.4856 | – | – | – | 1174.5 | 1134.7 | 1094.9
[4], x2 = 0.5569 | – | – | – | 1163.5 | 1123.2 | 1083.1
[4], x2 = 0.6626 | – | – | – | 1149.3 | 1109.1 | 1068.9
[4], x2 = 0.7722 | – | – | – | 1137.6 | 1096.8 | 1056.6
[4], x2 = 0.8646 | – | – | – | 1129.1 | 1088.3 | 1047.8

C[N+](=O)[O-] [nitromethane] + ClC(Cl)C(Cl)Cl
x2 = 0
Settings | refractive index, 298.15 K | refractive index, 308.15 K | refractive index, 318.15 K | speed of sound, 298.15 K [m/s] | speed of sound, 308.15 K [m/s] | speed of sound, 318.15 K [m/s]
[3] | 1.37946 | 1.37472 | 1.36996 | – | – | –
[4] | – | – | – | 1321.2 | 1281.8 | 1242.5
